Values after ≈ are worked out from the molar mass of the structure shown.
Experiments:
[1] = tested on: C. albicans ATCC 90819(R) (strain D); assay: microbe, parasite or virus in culture; type: cell-based, Candida albicans; details: strain D; compounds 1-4n and AmB; 48 h, RPMI 1640
Method in brief: (§1)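 A modified CLSI M27-A3 protocol is used, with final compound levels from 12.5 to 0.02 μg/mL in two-fold steps. Cells are incubated at 5×10^3 CFU/mL in buffered RPMI 1640 at 35° C for 48 h.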

[2] = tested on: C. albicans ATCC 64124 (strain B); assay: microbe, parasite or virus in culture; type: cell-based, Candida albicans; details: strain B; compounds 1-4n and AmB; 48 h, RPMI 1640
Method in brief: as §1

[3] = tested on: C. albicans ATCC MYA-1237(R) (strain F); assay: microbe, parasite or virus in culture; type: cell-based, Candida albicans; details: strain F; compounds 1-4n and AmB; 48 h, RPMI 1640
Method in brief: as §1

[4] = tested on: C. albicans ATCC MYA-1003(R) (strain G); assay: microbe, parasite or virus in culture; type: cell-based, Candida albicans; details: strain G; compounds 1-4n and AmB; 48 h, RPMI 1640
Method in brief: as §1

Candida strains (A-J) = assay: Antifungal MIC, summary over panel of Candida strains; type: cell-based
Description: Fungal MIC determination experiments were performed using untreated 96-well plates (Corning). Cells were counted either by using a hemocytometer (Hausser Scientific, Horsham, Pa., USA) or by measuring optical density at attenuance of 600 nm (OD600) by using a Genesys 20 spectrophotometer (Thermo Scientific, Waltham, Mass., USA). Spectrophotometric and colorimetric measurements in 96-well plates were performed using a SpectraMax M5 spectrometer (Molecular Devices, Sunnyvale, Calif., USA).
Yeast strains Candida albicans ATCC 10231 (strain A), C. albicans ATCC 64124 (strain B), and C. albicans ATCC MYA-2876(S) (strain C) were kindly provided by Dr. Jon Y. Takemoto (Utah State University, Logan, UT, USA). C. albicans ATCC MYA-90819(R) (strain D), C. albicans ATCC MYA-2310(S) (strain E), C. albicans ATCC 1237(R) (strain F), C. albicans ATCC MYA-1003(R) (strain G), Candida glabrata ATCC 2001 (strain H), Candida krusei ATCC 6258 (strain I), and Candida parapsilosis ATCC 22019 (strain J) were obtained from the American Type Culture Collection (ATCC, Manassas, Va., USA). The (S) and (R) indicate that ATCC reports these strains to be susceptible (S) and resistant (R) to ITC and FLC. The filamentous fungal strains Aspergillus flavus ATCC MYA-3631 (strain K), and Aspergillus terreus ATCC MYA-3633 (strain M) were also obtained from the American Type Culture Collection (ATCC, Manassas, Va., USA). Aspergillus nidulans ATCC 38163 (strain L) was kindly provided by Dr. Jon S. Thorson (University of Kentucky, Lexington, Ky., USA), respectively. Yeast strains were cultured at 35° C. Filamentous fungal strains were cultured at 25° C. and the spores were harvested. All fungal strains were cultured in RPMI 1640 medium (catalog # R6504, Sigma-Aldrich Chemical Co., St. Louis, Mo.) buffered to pH 7.0 with 0.165 M morpholinepropanesulfonic acid (MOPS) buffer (Sigma-Aldrich Chemical Co.).
The MIC values against fungal strains were determined based on a previously published protocol. MIC values for ebsulfur (2a) analogues against fungal cells were evaluated in 96-well plates as described in the CLSI document M27-A3 with minor modifications. […] Therefore, potato dextrose broth (PDB) was used to grow the yeast inocula of all strains tested, which were later diluted in RPMI 1640 medium to perform determination of MIC values. […] The tested compounds (10 mg/mL) were diluted to the working stocks (500 μg/mL) by addition of DMSO. Two-fold serial dilution of the working stocks was prepared by addition of RPMI 1640 medium (100 μL) and cell suspension (100 μL) to 96-well microtiter plate to achieve final drug and inoculum concentrations ranging from 12.5-0.02 μg/mL and 5×10^3 CFU/mL, respectively. Plates were incubated for 48 h at 35° C. […]

[5] = tested on: C. albicans ATCC MYA-2876(S) (strain C); assay: Antifungal MIC determination (CLSI M27-A3, 96-well); type: cell-based, Candida albicans; details: strain C; compounds 1-4n and AmB; 48 h, RPMI 1640
Method in brief: as §1

[6] = tested on: C. albicans ATCC MYA-2310(S) (strain E); assay: as above; type: cell-based, Candida albicans; details: strain E; compounds 1-4n and AmB; 48 h, RPMI 1640
Method in brief: as §1

[7] = tested on: Candida parapsilosis ATCC 22019 (strain J); assay: as above; type: cell-based; details: strain J; compounds 1-4n and AmB; 48 h, RPMI 1640
Method in brief: as §1

[8] = tested on: Candida albicans ATCC 10231 (strain A); assay: as above; type: cell-based; details: strain A; compounds 1-4n and AmB; 48 h, RPMI 1640
Method in brief: as §1

[9] = tested on: Candida krusei ATCC 6258 (strain I); assay: as above; type: cell-based; details: strain I; compounds 1-4n and AmB; 48 h, RPMI 1640
Method in brief: as §1

[10] = tested on: Candida glabrata ATCC 2001 (strain H); assay: as above; type: cell-based; details: strain H; compounds 1-4n and AmB; 48 h, RPMI 1640
Method in brief: as §1

[11] = tested on: Aspergillus nidulans ATCC 38163 (strain L); assay: Antifungal MIC determination, filamentous fungi spores; type: cell-based; details: strain L; spores
Method in brief: (§2)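 Broth microdilution per CLSI M27-A3 (modified) in RPMI 1640 buffered to pH 7.0 with 0.165 M MOPS; yeast inocula grown in PDB, Aspergillus spores from PDA cultures at 25° C. Final drug 12.5-0.02 μg/mL, inoculum 5×10^3 CFU/mL; incubation 48 h at 35° C.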

[12] = tested on: Aspergillus flavus ATCC MYA-3631 (strain K); assay: as above; type: cell-based; details: all compounds
Method in brief: as §2

SMILES	MIC-0 [1]	MIC-0 [2]	MIC-0 [3]	MIC-0 [4]	MIC values against clinically relevant Candida strains (Candida strains (A-J))	fold more active than AmB (Candida strains (A-J); anti-Candida)	fold more potent in MIC values than FLC (Candida strains (A-J); anti-Candida, except against strain J)	MIC-0 [5]	MIC-0 [6]	MIC-0 [7]	MIC-0 [8]	MIC-0 [9]	MIC-0 [10]	MIC-0 [11]	MIC-0 [12]	MIC values against Candida strains, range (Candida strains (A-J); Candida strains A-J)
CCCCCn1sc2ccccc2c1=O [Compound 3a]	1.56 µg/mL (≈ 7.05 µM)	0.39 µg/mL (≈ 1.76 µM)	0.78 µg/mL (≈ 3.52 µM)	0.78 µg/mL (≈ 3.52 µM)	0.78 µg/mL (≈ 3.52 µM)	1.25- to 10 fold	20- to 320 fold	0.78 µg/mL (≈ 3.52 µM)	0.39 µg/mL (≈ 1.76 µM)	0.78 µg/mL (≈ 3.52 µM)	1.56 µg/mL (≈ 7.05 µM)	0.78 µg/mL (≈ 3.52 µM)	1.56 µg/mL (≈ 7.05 µM)	≤0.02 µg/mL	≤0.02 µg/mL	
CCCCCCn1sc2ccccc2c1=O [Compound 3b]	1.56 µg/mL (≈ 6.63 µM)	1.56 µg/mL (≈ 6.63 µM)	1.56 µg/mL (≈ 6.63 µM)	0.78 µg/mL (≈ 3.31 µM)	0.78 µg/mL (≈ 3.31 µM)			0.78 µg/mL (≈ 3.31 µM)	0.78 µg/mL (≈ 3.31 µM)	0.78 µg/mL (≈ 3.31 µM)	1.56 µg/mL (≈ 6.63 µM)	0.78 µg/mL (≈ 3.31 µM)	1.56 µg/mL (≈ 6.63 µM)	≤≤0.02 μg/mL	≤0.02 µg/mL	
CC(C)(C)n1sc2ccccc2c1=O [Compound 3g]	1.56 µg/mL (≈ 7.53 µM)	1.56 µg/mL (≈ 7.53 µM)	1.56 µg/mL (≈ 7.53 µM)	1.56 µg/mL (≈ 7.53 µM)				3.13 µg/mL (≈ 15.1 µM)	1.56 µg/mL (≈ 7.53 µM)	1.56 µg/mL (≈ 7.53 µM)	0.78 µg/mL (≈ 3.76 µM)	0.78 µg/mL (≈ 3.76 µM)	1.56 µg/mL (≈ 7.53 µM)	0.10 µg/mL (≈ 0.482 µM)	0.10 µg/mL (≈ 0.482 µM)	0.78 to 3.13 µg/mL
